Measurements reported in US6897306B2, “3-heterocyclylpropanohydroxamic acids” (Pfizer Products, Inc., priority 1999, dated 2005).
Each block holds one compound with its values, some of them ahead of it.

Assays:
[1] = Dynamic Vapour Sorption (moisture sorption); assay type: physicochemical
Description: Melting points were determined using open glass capillary tubes and a Gallenkamp melting point apparatus and are uncorrected. Nuclear magnetic resonance (NMR) data were obtained using Varian Unity Inova-400, Varian Unity Inova-300 or Bruker AC300 spectrometers and are quoted in parts per million from tetramethylsilane. Mass spectral (MS) data were obtained on a Finnigan Mat. TSQ 7000 or a Fisons Instruments Trio 1000. The calculated and observed ions quoted refer to the isotopic composition of lowest mass. Infra red (1R) spectra were measured using a Nicolet Magna 550 Fourier transform infra-red spectrometer. Flash chromatography refers to column chromatography on silica gel (Kieselgel 60, 230-400 mesh, from E. Merck, Darmstadt. Kieselgel 60 F254 plates from E. Merck were used for TLC, and compounds were visualised using UV light, 5% aqueous potassium permanagate or Dragendorff's reagent (oversprayed with aqueous sodium nitrite). Thermal analyses by Differential Scanning Calorimetry (DSC) and ThermoGravimetric Analysis (TGA) were obtained using Perkin Elmer DSC7 and TGA7. Moisture sorption characteristics were recorded using Surface Measurement Systems Ltd. Automated Water Sorption Analyser DVS 1. Water content was determined on a Mitsubishi CA100 (Coulometric Karl Fisher Titrator). Powder X-ray diffraction (PXRD) pattern was determined using a Siemens D5000 powder X-ray diffractometer fitted with an automatic sample changer, a theta-theta goniometer, automatic beam divergence slits, a secondary monochromator and a scintillation counter. Other measurements were taken using standard equipment. Hexane refers to a mixture of hexanes (hplc grade) b.p. 65-70° C. Ether refers to diethyl ether. Acetic acid refers to glacial acetic acid. 1-Hydroxy-7-aza-1H-1,2,3-benzotriazole (HOAt), N-[(dimethylamino)-1H-1,2,3-triazolo[4,5-b]pyridin-1-ylmethylene]-N-methylmethaninium hexafluorophosphate N-oxide (HATU) and 7-azabenzotriazol-1-yloxytris(pyrrolidino)phosphonium hexafluorophosphate (PyAOP) were purchased from PerSeptive Biosystems U.K. Ltd. “DIPE” refers to diisopropyl ether. Reverse-phase silica gel for flash chromatography was obtained from Fluka (Fluka 100, C18, 40-63μ). Pentane refers to High Performance Liquid Chromatography (HPLC) grade n-pentane (b.pt.35-37° C.). Nomenclature has been allocated using a program available from IUPAC. Standard abbreviations are used throughout, e.g. “Me” is methyl, “Et” is ethyl, “Pr” is propyl, “Ph” is phenyl, etc. It was noticed that during certain repetitions of the methods disclosed in the Examples and Preparations that some racemisation appeared to have taken place. It was found in some cases that specific desired enantiomers can be separated from mixtures thereof by routine methods such as by differential crystallisation. • ^aHPLC autopurification performed using 2 columns—Phenomonex LUNA C8 150×21.2 mm, 10 μm and Phenomonex […] C18 150×21.2 mm, […], eluting with a gradient system of organic solvent [ammonium acetate (aq) 100 mM:acetonitrile (1:9)]:aqueous solvent [ammonium acetate (aq) 100 mM:acetonitrile (9:1)] • ^bHPLC autopurification performed using 2 columns—Phenomonex LUNA C8 150×21.2 mm, 10 μm and Phenomonex […] C18 150×21.2 mm, 5 μm, eluting with a gradient system of organic solvent (acetonitrile):aqueous solvent (0.1% aqueous trifluoroacetic acid)

[2] = system: keratinocyte migration (MMP-1 dependent); details: collagen type I matrix in vitro; cited from earlier work

Structure (SMILES): NC(=O)c1noc([C@H](CCCC2CCCCC2)CC(=O)NO)n1 [Example 2(c), 5-{(1R)-4-Cyclohexyl-1-[2-(hydroxyamino)-2-oxoethyl]butyl}-1,2,4-oxadiazole-3-carboxamide (Anhydrous)]
- Dynamic Vapour Sorption ([1]; 15% RH (30° C.)): 0.18 % w/w
- Dynamic Vapour Sorption ([1]; 30% RH (30° C.)): 0.23 % w/w
- Dynamic Vapour Sorption, hydration behaviour ([1]; 60% RH (30° C.), converting to the monohydrate (XRD)): hydrates slowly
- Dynamic Vapour Sorption, equilibrium ([1]; 90% RH (30° C.)): 5.3 % w/w

Structure (SMILES): O=C(C[C@@H](CCCC1CCCCC1)c1nc(C(=O)NCc2ccccn2)no1)NO [Example 10, 5-{(1R)-4-Cyclohexyl-1-[2-(hydroxyamino)-2-oxoethyl]butyl}-N-(2-pyridinylmethyl) -1,2,4-oxadiazole-3-carboxamide]
- melting point: 128 to 130 °C

Structure (SMILES): NC(=O)c1noc([C@H](CCCC2CCCCC2)CC(=O)NO)n1 [Example 2(b), 5-{(1R)-4-Cyclohexyl-1-[2-(hydroxyamino)-2-oxoethyl]butyl}-1,2,4-oxadiazole-3-carboxamide Monohydrate]
- Dynamic Vapour Sorption ([1]; 2% RH (30° C.)): 4.84 % w/w
- Dynamic Vapour Sorption ([1]; 20% RH (30° C.)): 5.17 % w/w
- Dynamic Vapour Sorption ([1]; below 1% RH (30° C.)): significant dehydration

Structure (SMILES): CNC(=O)[C@H](Cc1ccc(OC)cc1)NC(=O)[C@@H](CC(=O)NO)CC(C)C [SC44463]
- inhibition of keratinocyte migration [2]: completely inhibited

The remaining lines, values ahead:

- melting point: 52 to 63 °C
Structure (SMILES): O=C(C[C@@H](CCCC1CCCCC1)c1nc(C(=O)N2CC(N3CCOCC3)C2)no1)NO [Example 14, (3R)-6-Cyclohexyl-N-hydroxy-3-(3-{[3-(4-morpholinyl)-1-azetidinyl]carbonyl}-1,2,4-oxadiazol-5-yl)hexanamide]

- melting point: 141 to 142 °C
Structure (SMILES): O=C(O)CNC(=O)c1noc([C@H](CCCC2CCCCC2)CC(=O)NO)n1 [Example 11, 2-{[(5-{(1R)-4-Cyclohexyl-1-[2-(hydroxyamino)-2-oxoethyl]butyl}-1,2,4-oxadiazol-3-yl)carbonyl]amino}acetic Acid]
